Measurements reported in the kinase profiling compilation of Christmann-Franck et al. (2016).

Experiments:
Experiment in all cases: radiometric filter-binding kinase assay, Kinase HotSpot
Settings in all cases: compound 0.5 µM; ATP 10 µM
MYLK2 (human) = MYLK2 (human) (UniProt Q9H1R3)
AURKA (human) = AURKA (human) (UniProt O14965)
CSNK1A1 (human) = CSNK1A1 (human) (UniProt P48729)
RAF1 (human) = RAF1 (human) (UniProt P04049)
MAPK11 (human) = MAPK11 (human) (UniProt Q15759)
TGFBR1 (human) = TGFBR1 (human) (UniProt P36897)
BLK (human) = BLK (human) (UniProt P51451)
MAP3K2 (human) = MAP3K2 (human) (UniProt Q9Y2U5)
OXSR1 (human) = OXSR1 (human) (UniProt O95747)
MAP3K11 (human) = MAP3K11 (human) (UniProt Q16584)
[1] = target: JAK1 JH1 catalytic (human) (UniProt P23458)
MET (human) = MET (human) (UniProt P08581)
MET (human), sequence (P08581 whole entry, looked up): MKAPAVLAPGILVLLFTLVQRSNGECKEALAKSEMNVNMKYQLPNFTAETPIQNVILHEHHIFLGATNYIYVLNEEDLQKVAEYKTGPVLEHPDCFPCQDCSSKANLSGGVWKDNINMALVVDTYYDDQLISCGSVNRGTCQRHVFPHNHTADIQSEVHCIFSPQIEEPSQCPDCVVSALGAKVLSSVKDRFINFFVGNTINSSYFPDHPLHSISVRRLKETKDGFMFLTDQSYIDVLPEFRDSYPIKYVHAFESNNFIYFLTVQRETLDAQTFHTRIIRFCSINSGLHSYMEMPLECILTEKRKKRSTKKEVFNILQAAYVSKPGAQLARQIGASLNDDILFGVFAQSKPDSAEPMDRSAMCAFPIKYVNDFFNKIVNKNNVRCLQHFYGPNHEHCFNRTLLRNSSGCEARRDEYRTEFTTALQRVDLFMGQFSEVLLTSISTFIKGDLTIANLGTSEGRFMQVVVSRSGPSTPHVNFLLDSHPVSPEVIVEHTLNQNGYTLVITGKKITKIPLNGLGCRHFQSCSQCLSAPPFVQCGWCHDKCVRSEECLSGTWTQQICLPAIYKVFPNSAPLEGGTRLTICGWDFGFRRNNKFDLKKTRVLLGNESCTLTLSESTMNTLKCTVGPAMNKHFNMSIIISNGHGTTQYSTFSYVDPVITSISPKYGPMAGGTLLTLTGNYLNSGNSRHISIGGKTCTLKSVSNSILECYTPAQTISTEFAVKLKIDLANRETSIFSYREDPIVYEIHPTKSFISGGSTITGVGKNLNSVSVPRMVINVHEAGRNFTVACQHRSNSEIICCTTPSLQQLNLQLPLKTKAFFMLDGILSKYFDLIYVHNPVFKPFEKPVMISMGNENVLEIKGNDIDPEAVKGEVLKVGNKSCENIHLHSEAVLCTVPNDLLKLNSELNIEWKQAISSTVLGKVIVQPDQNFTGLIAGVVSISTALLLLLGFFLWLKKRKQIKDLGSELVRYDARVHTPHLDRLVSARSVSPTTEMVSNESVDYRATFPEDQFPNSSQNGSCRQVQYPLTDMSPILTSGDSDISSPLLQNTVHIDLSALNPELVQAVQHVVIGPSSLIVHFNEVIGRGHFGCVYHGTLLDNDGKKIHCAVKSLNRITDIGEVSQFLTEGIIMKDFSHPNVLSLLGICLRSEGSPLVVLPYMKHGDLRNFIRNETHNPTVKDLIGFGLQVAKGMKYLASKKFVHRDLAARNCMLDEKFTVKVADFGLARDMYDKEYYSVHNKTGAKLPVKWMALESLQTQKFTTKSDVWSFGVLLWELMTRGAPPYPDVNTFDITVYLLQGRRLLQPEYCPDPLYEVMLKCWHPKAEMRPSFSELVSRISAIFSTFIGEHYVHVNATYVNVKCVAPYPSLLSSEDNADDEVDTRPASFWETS

RPS6KA2 KD1 KD2 (human) = RPS6KA2 KD1 KD2 (human) (UniProt Q15349)
FLT1 (human) = FLT1 (human) (UniProt P17948)
SGK3 (human) = SGK3 (human) (UniProt Q96BR1)
SGK3 (human), sequence (Q96BR1 whole entry, looked up): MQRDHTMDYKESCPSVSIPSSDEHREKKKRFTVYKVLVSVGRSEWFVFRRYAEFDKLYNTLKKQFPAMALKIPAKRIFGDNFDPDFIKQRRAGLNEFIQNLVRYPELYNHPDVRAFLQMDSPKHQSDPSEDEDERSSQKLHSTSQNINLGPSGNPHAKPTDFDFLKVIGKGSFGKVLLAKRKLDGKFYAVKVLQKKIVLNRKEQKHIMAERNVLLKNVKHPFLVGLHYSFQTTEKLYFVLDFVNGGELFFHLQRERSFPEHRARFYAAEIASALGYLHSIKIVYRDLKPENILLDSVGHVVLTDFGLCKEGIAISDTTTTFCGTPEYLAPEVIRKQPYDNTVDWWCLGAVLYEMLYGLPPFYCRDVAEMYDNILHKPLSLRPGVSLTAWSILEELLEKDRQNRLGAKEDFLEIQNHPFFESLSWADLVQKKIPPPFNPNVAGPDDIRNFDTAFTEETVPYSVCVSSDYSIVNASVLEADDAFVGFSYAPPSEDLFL

CDK5 CDK5R1 p25 (human) = CDK5 CDK5R1 p25 (human) (UniProt Q00535+Q15078)
PTK2 (human) = PTK2 (human) (UniProt Q05397)
PTK2 (human), sequence (Q05397 whole entry, looked up): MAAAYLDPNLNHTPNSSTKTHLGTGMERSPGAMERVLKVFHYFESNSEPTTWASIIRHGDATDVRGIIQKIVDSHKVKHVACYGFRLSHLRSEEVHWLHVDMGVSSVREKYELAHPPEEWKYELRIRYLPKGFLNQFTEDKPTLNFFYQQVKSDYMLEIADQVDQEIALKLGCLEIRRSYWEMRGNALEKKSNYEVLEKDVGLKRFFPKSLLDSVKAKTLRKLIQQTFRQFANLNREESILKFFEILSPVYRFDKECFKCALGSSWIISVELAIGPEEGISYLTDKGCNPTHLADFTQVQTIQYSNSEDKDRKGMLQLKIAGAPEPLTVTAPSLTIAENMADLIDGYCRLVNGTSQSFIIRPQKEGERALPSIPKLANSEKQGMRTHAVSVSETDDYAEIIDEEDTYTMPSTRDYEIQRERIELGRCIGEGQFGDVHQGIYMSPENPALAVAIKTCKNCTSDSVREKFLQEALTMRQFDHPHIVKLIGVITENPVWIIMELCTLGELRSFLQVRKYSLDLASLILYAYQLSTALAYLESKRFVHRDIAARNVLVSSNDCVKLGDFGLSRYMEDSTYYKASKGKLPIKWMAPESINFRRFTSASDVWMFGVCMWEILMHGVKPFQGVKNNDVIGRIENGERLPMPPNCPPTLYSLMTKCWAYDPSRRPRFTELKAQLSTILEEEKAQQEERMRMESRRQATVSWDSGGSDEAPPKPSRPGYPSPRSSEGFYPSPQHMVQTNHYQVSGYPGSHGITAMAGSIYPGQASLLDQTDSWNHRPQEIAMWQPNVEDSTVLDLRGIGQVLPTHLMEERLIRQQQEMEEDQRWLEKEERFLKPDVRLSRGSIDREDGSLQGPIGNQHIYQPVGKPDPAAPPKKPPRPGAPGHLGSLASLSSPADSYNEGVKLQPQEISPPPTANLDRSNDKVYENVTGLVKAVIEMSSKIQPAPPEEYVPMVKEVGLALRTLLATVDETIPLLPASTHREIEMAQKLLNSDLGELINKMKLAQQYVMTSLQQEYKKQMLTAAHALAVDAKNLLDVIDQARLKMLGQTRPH

PIM2 (human) = PIM2 (human) (UniProt Q9P1W9)
CDC42BPB (human) = CDC42BPB (human) (UniProt Q9Y5S2)
SRC (human) = SRC (human) (UniProt P12931)
PRKCD (human) = PRKCD (human) (UniProt Q05655)
PDGFRB (human) = PDGFRB (human) (UniProt P09619)
PRKG2 (human) = PRKG2 (human) (UniProt Q13237)
DMPK (human) = DMPK (human) (UniProt Q09013)
INSRR (human) = INSRR (human) (UniProt P14616)
AURKB (human) = AURKB (human) (UniProt Q96GD4)
YES1 (human) = YES1 (human) (UniProt P07947)
MAP2K2 (human) = MAP2K2 (human) (UniProt P36507)
JAK2 JH1 JH2 (human) = JAK2 JH1 JH2 (human) (UniProt O60674)
CSNK1D (human) = CSNK1D (human) (UniProt P48730)
GSK3A (human) = GSK3A (human) (UniProt P49840)
DAPK1 (human) = DAPK1 (human) (UniProt P53355)
DAPK1 (human), sequence (P53355 whole entry, looked up): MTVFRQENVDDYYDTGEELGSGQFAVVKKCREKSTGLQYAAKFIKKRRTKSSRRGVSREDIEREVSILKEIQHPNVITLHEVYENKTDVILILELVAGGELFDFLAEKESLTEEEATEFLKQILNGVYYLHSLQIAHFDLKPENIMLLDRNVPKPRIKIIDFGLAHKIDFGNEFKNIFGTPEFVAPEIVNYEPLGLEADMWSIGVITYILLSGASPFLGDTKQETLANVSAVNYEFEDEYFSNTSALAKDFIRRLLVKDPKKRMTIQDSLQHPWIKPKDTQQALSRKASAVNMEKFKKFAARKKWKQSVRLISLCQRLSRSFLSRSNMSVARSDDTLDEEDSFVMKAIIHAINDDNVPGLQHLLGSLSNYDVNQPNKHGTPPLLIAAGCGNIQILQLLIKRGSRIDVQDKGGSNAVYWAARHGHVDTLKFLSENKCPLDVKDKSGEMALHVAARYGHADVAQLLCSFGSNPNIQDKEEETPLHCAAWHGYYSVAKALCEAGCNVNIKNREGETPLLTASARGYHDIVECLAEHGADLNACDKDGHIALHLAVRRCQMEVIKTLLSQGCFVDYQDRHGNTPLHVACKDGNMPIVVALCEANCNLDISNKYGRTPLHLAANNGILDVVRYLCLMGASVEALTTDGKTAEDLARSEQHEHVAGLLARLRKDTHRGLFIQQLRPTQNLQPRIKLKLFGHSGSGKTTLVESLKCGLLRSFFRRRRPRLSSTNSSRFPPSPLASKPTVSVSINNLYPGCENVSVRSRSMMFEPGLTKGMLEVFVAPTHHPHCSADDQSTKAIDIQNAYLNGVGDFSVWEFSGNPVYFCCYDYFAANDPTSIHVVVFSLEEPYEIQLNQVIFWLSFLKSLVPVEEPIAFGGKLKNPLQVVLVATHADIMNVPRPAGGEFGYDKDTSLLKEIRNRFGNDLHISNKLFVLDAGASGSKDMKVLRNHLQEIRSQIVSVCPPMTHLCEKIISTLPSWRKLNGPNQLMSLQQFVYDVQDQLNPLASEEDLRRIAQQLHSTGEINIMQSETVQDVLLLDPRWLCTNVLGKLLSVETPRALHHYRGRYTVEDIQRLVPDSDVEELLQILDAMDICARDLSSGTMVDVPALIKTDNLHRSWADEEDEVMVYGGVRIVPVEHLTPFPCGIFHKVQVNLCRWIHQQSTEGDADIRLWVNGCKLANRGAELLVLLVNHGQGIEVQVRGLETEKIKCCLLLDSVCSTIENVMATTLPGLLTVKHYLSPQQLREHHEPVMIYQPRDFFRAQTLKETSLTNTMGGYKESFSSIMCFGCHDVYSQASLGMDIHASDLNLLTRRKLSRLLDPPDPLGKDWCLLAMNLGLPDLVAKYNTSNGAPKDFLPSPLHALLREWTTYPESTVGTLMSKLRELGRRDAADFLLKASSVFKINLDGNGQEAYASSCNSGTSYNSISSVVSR

AKT3 (human) = AKT3 (human) (UniProt Q9Y243)
EPHB2 (human) = EPHB2 (human) (UniProt P29323)
CSNK1E (human) = CSNK1E (human) (UniProt P49674)
STK4 (human) = STK4 (human) (UniProt Q13043)
FGR (human) = FGR (human) (UniProt P09769)
CAMKK1 (human) = CAMKK1 (human) (UniProt Q8N5S9)
HIPK2 (human) = HIPK2 (human) (UniProt Q9H2X6)
DYRK1A (human) = DYRK1A (human) (UniProt Q13627)
FES (human) = FES (human) (UniProt P07332)
MLTK (human) = MLTK (human) (UniProt Q9NYL2)

RAF1 (human), sequence (P04049 whole entry, looked up): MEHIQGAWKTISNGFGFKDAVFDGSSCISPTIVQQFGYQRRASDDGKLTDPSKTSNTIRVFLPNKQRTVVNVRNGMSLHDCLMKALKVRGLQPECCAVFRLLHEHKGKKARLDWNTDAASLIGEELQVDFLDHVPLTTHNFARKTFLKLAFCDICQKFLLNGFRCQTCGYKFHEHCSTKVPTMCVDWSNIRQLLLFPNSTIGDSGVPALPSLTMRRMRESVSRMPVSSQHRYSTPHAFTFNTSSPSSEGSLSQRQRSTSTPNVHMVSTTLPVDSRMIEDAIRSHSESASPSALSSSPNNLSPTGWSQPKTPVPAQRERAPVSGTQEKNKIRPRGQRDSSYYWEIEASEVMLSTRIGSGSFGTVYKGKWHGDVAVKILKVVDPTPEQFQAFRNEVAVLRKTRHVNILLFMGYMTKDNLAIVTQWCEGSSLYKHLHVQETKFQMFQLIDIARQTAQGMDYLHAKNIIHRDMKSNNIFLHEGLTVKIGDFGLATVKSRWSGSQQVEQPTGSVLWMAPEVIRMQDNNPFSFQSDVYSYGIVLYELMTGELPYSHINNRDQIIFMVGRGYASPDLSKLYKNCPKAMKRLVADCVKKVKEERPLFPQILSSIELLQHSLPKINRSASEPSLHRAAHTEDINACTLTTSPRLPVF

SMILES: N#C/C(=C\c1ccc(O)c(O)c1)C(=O)NCc1ccccc1
- residual activity (MYLK2 (human)): 97.9%
- residual activity (AURKA (human)): 92.2%
- residual activity (CSNK1A1 (human)): 110%
- residual activity (RAF1 (human)): 92.8%
- residual activity (MAPK11 (human)): 98.7%
- residual activity (TGFBR1 (human)): 97.6%
- residual activity (BLK (human)): 95.6%
- residual activity (MAP3K2 (human)): 99.8%
- residual activity (OXSR1 (human)): 101%
- residual activity (MAP3K11 (human)): 97%
- residual activity [1]: 93.8%
- residual activity (MET (human)): 98.1%
- residual activity (RPS6KA2 KD1 KD2 (human)): 94.2%
- residual activity (FLT1 (human)): 88%
- residual activity (SGK3 (human)): 102%
- residual activity (CDK5 CDK5R1 p25 (human)): 101%
- residual activity (PTK2 (human)): 96.9%
- residual activity (PIM2 (human)): 97.1%
- residual activity (CDC42BPB (human)): 103%
- residual activity (SRC (human)): 94.8%
- residual activity (PRKCD (human)): 91.1%
- residual activity (PDGFRB (human)): 100%
- residual activity (PRKG2 (human)): 98.6%
- residual activity (DMPK (human)): 99.7%
- residual activity (INSRR (human)): 96.3%
- residual activity (AURKB (human)): 94.4%
- residual activity (YES1 (human)): 103%
- residual activity (MAP2K2 (human)): 105%
- residual activity (JAK2 JH1 JH2 (human)): 98.1%
- residual activity (CSNK1D (human)): 98.3%
- residual activity (GSK3A (human)): 96.5%
- residual activity (DAPK1 (human)): 99.7%
- residual activity (AKT3 (human)): 90.8%
- residual activity (EPHB2 (human)): 99.7%
- residual activity (CSNK1E (human)): 86.3%
- residual activity (STK4 (human)): 95.9%
- residual activity (FGR (human)): 93.7%
- residual activity (CAMKK1 (human)): 102%
- residual activity (HIPK2 (human)): 101%
- residual activity (DYRK1A (human)): 102%
- residual activity (FES (human)): 101%

SMILES: COc1ccc2c(c1)/C(=C/c1cnc[nH]1)C(O)=N2
- residual activity (MYLK2 (human)): 21%
- residual activity (AURKA (human)): 69%
- residual activity (CSNK1A1 (human)): 86.4%
- residual activity (RAF1 (human)): 98.3%
- residual activity (MAPK11 (human)): 103%
- residual activity (TGFBR1 (human)): 98.1%
- residual activity (BLK (human)): 90.3%
- residual activity (MAP3K2 (human)): 89.6%
- residual activity (OXSR1 (human)): 97.3%
- residual activity (MAP3K11 (human)): 61.6%
- residual activity [1]: 83.8%
- residual activity (MET (human)): 103%
- residual activity (RPS6KA2 KD1 KD2 (human)): 44.3%
- residual activity (FLT1 (human)): 73.9%
- residual activity (SGK3 (human)): 101%
- residual activity (CDK5 CDK5R1 p25 (human)): 4.52%
- residual activity (PTK2 (human)): 87.9%
- residual activity (PIM2 (human)): 97.2%
- residual activity (CDC42BPB (human)): 104%
- residual activity (SRC (human)): 92.1%
- residual activity (PRKCD (human)): 95.5%
- residual activity (PRKG2 (human)): 99.7%
- residual activity (MLTK (human)): 91.4%
- residual activity (DMPK (human)): 104%
- residual activity (INSRR (human)): 97.8%
- residual activity (AURKB (human)): 40%
- residual activity (YES1 (human)): 82.1%
- residual activity (MAP2K2 (human)): 108%
- residual activity (JAK2 JH1 JH2 (human)): 88.9%
- residual activity (CSNK1D (human)): 93.6%
- residual activity (GSK3A (human)): 26.2%
- residual activity (DAPK1 (human)): 105%
- residual activity (AKT3 (human)): 101%
- residual activity (EPHB2 (human)): 100%
- residual activity (CSNK1E (human)): 80%
- residual activity (STK4 (human)): 5.67%
- residual activity (FGR (human)): 80.4%
- residual activity (CAMKK1 (human)): 91.3%
- residual activity (HIPK2 (human)): 100%
- residual activity (DYRK1A (human)): 70.4%
- residual activity (FES (human)): 97%

SMILES: COc1cc(Nc2c(C#N)cnc3cc(OCCCN4CCN(C)CC4)c(OC)cc23)c(Cl)cc1Cl
- residual activity (MYLK2 (human)): 32.1%
- residual activity (AURKA (human)): 86%
- residual activity (CSNK1A1 (human)): 49.5%
- residual activity (RAF1 (human)): 105%
- residual activity (MAPK11 (human)): 101%
- residual activity (TGFBR1 (human)): 99%
- residual activity (BLK (human)): 20.7%
- residual activity (MAP3K2 (human)): 23.5%
- residual activity (OXSR1 (human)): 100%
- residual activity (MAP3K11 (human)): 13.5%
- residual activity [1]: 99%
- residual activity (MET (human)): 84.5%
- residual activity (RPS6KA2 KD1 KD2 (human)): 44.2%
- residual activity (FLT1 (human)): 44.5%
- residual activity (SGK3 (human)): 94.4%
- residual activity (CDK5 CDK5R1 p25 (human)): 95.9%
- residual activity (PTK2 (human)): 96%
- residual activity (PIM2 (human)): 111%
- residual activity (CDC42BPB (human)): 88.2%
- residual activity (SRC (human)): 6.05%
- residual activity (PRKCD (human)): 40.3%
- residual activity (PDGFRB (human)): 74.8%
- residual activity (PRKG2 (human)): 109%
- residual activity (INSRR (human)): 36.9%
- residual activity (AURKB (human)): 83.1%
- residual activity (YES1 (human)): 7.29%
- residual activity (JAK2 JH1 JH2 (human)): 97.4%
- residual activity (CSNK1D (human)): 10.9%
- residual activity (GSK3A (human)): 103%
- residual activity (DAPK1 (human)): 106%
- residual activity (AKT3 (human)): 90.7%
- residual activity (EPHB2 (human)): 17.4%
- residual activity (CSNK1E (human)): 11.4%
- residual activity (STK4 (human)): 7.4%
- residual activity (FGR (human)): 11.5%
- residual activity (CAMKK1 (human)): 84.8%
- residual activity (HIPK2 (human)): 89%
- residual activity (DYRK1A (human)): 99.4%
